Patent publication US20260206761A1, “HETEROARYL-TRIAZOLE COMPOUNDS AS PESTICIDES” (Bayer Aktiengesellschaft, priority 2019, published 2026)

Tests used:
Assay type in all cases: in vivo
[1] = tested on: Rhipicephalus microplus larvae (strain Parkhurst, resistant against synthetic pyrethroids); experiment: Rhipicephalus (Boophilus) microplus in-vitro contact test, larval cattle tick; conditions: after 48 hours, read-out: activity (efficacy: larvae dead or moribund); for pest or weed control at 100 g/ha: application rate 1 pg/cm^2 (=100 g/ha); for pest or weed control at 500 g/ha: application rate 5 pg/cm^2 (=500 g/ha)
Method in brief: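 Acetone solutions coated onto inner walls of glass tubes by rotation (900 ppm giving 5 μg/cm^2); after evaporation, 20-50 larvae added per tube and held at 27° C., 85% relative humidity. Efficacy read after 48 h from negative geotactic behaviour; 100% = all larvae dead or moribund.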

[2] = tested on: adult brown dog ticks (Rhipicephalus sanguineus); experiment: Rhipicephalus sanguineus in-vitro contact test, adult brown dog ticks; conditions: after 48 hours, read-out: activity (efficacy: ticks dead or moribund); for pest or weed control at 100 g/ha: application rate 1 pg/cm^2 (=100 g/ha); for pest or weed control at 5 µg/cm2, 500 g/ha: application rate 5 μg/cm^2 (=500 g/ha)
Method in brief: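 Compound in acetone was coated onto inner walls of glass tubes by rotation (2 h, 30 rpm); 900 ppm gives 5 μg/cm^2. After drying, 5-10 adult ticks were enclosed per tube at room temperature; after 48 h, heat-escape test at 45-50° C scored dead/moribund ticks as % efficacy.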

[3] = tested on: green peach aphid (Myzus persicae); experiment: Myzus persicae spray test; conditions: 120 h, after 5 days; for mortality at 100 g/ha: application rate 100 g/ha; for mortality at 500 g/ha: application rate 500 g/ha
Method in brief: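 Chinese cabbage leaf disks carrying all instars of M. persicae sprayed with compound in acetone/DMF, diluted in water with 1000 ppm alkylarylpolyglycol ether emulsifier. Percent mortality scored after 5 days (100% = all aphids killed).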

[4] = tested on: Anopheles funestus strain FUMOZ-R; experiment: Anopheles funestus test (ANPHFU surface treatment & contact assay); conditions: 24 hours after contact, read-out: efficacy (mortality); for mortality at 4 mg/m2: surface concentration 4 mg/m^2, exposure 30 minutes; for mortality at 20 mg/m2: surface concentration 20 mg/m^2, exposure 30 minutes
Method in brief: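 Compound dissolved in acetone at 2 mg/ml with 2000 ppm RME, pipetted onto glazed tile; acetone evaporated. Adult FUMOZ-R mosquitoes exposed to dried surface for 30 min. Percent mortality scored 24 h after contact.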

[5] = tested on: larvae of the southern green stink bug (Nezara viridula); experiment: Nezara viridula spray test; conditions: 96 h, after 4 days; for mortality at 100 g/ha: application rate 100 g/ha; for mortality at 500 g/ha: application rate 500 g/ha
Method in brief: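 Compound in acetone/dimethylformamide, diluted in water with 1000 ppm alkylarylpolyglycol ether emulsifier, sprayed onto barley plants carrying stink bug larvae. Mortality (%) scored after 4 days, 100% meaning all insects killed.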

[6] = tested on: Culex quinquefasciatus strain P00; experiment: Culex quinquefasciatus test (CULXFA surface treatment & contact assay); conditions: 24 hours after contact, read-out: efficacy (mortality); for mortality at 4 mg/m2: surface concentration 4 mg/m^2, exposure 30 minutes; for mortality at 20 mg/m2: surface concentration 20 mg/m^2, exposure 30 minutes
Method in brief: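 Compound in acetone (2 mg/ml) with 2000 ppm rapeseed oil methyl ester, dried onto glazed tile. Adult mosquitoes exposed to the treated surface for 30 min. Percent mortality scored 24 h after contact.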

[7] = tested on: brown planthopper (Nilaparvata lugens); experiment: Nilaparvata lugens spray test; conditions: 96 h, after 4 days; for mortality at 100 g/ha: application rate 100 g/ha
Protocol: Nilaparvata lugens—Spray Test
Solvent: 78.0 parts by weight of acetone • • 1.5 parts by weight of dimethylformamide
Emulsifier: alkylarylpolyglycol ether
To produce a suitable preparation of active compound, 1 part by weight of active compound is mixed with the stated amount of solvents and is diluted with water, containing an emulsifier concentration of 1000 ppm, to the desired concentration. Further test concentrations are prepared by dilution with emulsifier containing water.
Rice plants (Oryza sativa) are sprayed with a preparation of the active ingredient of the desired concentration and the plants are infested with the brown planthopper (Nilaparvata lugens).
After 4 days mortality in % is determined. 100% means all planthoppers have been killed and 0% means none of the planthoppers have been killed.

| Compound | pest or weed control at 100 g/ha [1] | pest or weed control at 500 g/ha [1] | pest or weed control at 100 g/ha [2] | pest or weed control at 5 µg/cm2, 500 g/ha [2] | mortality at 100 g/ha [3] | mortality at 4 mg/m2 [4] | mortality at 20 mg/m2 [4] | mortality at 100 g/ha [5] | mortality at 4 mg/m2 [6] | mortality at 20 mg/m2 [6] | mortality at 100 g/ha [7] | mortality at 500 g/ha [3] | mortality at 500 g/ha [5] | mortality at 500 g/ha ([7]; application rate 500 g/ha) |
| --- | --- | --- | --- | --- | --- | --- | --- | --- | --- | --- | --- | --- | --- | --- |
| CC(C)c1nc([C@H](C)NC(=O)c2cc(OC(F)(F)F)cc(C3CC3)c2)n(-c2ccc(C#N)cn2)n1 [I-23] | 100% | 100% | 100% | 100% | 90% | 80 to 100% | 80 to 100% |  |  |  |  |  |  |  |
| C[C@H](NC(=O)c1cc(Cl)cc(S(=O)(=O)C2CC2)c1)c1nc(C2CC2)nn1-c1ncc(Cl)cn1 [I-25] | 100% | 100% |  |  | 100% |  |  | 100% | 80 to 100% | 80 to 100% |  |  |  |  |
| CC(NC(=O)c1cc(C(F)(F)F)cc(S(C)(=O)=O)c1)c1nc(Cl)nn1-c1ncccn1 (stereo not shown) [I-30] | 100% | 100% | 100% | 100% | 90% | 80 to 100% | 80 to 100% | 100% |  |  | 100% |  |  |  |
| CSc1cc(C#N)cc(C(=O)N[C@@H](C)c2ncnn2-c2ccc(C#N)cn2)c1 [II-3] | 90% | 90% |  |  | 100% |  | 80 to 100% | 100% | 80 to 100% | 80 to 100% |  | 100% | 100% |  |
| Cc1nc([C@H](C)NC(=O)c2cc(C(F)(F)F)n(C)n2)n(-c2ccc(C#N)cn2)n1 [II-7] |  | 100% |  |  |  | 80 to 100% |  |  |  | 80 to 100% |  |  | 90% |  |
| Cc1nc([C@H](C)NC(=O)c2cc(Cl)nn2C)n(-c2ccc(C#N)cn2)n1 [II-11] | 100% | 100% | 80% | 80% |  | 80 to 100% | 80 to 100% |  | 80 to 100% |  |  |  |  |  |
| C[C@H](NC(=O)c1cc(C(F)(F)F)cc(S(C)(=O)=O)c1)c1ncnn1-c1ccc(Cl)cn1 [II-16] | 100% | 100% |  |  |  | 80 to 100% |  | 100% | 80 to 100% |  |  |  | 100% |  |
| C[C@H](NC(=O)c1cc(Cl)cc(S(=O)(=O)C(F)F)c1)c1ncnn1-c1ccc(C#N)cn1 [II-17] | 100% | 100% |  |  |  | 80 to 100% |  |  | 80 to 100% | 80 to 100% |  |  | 100% |  |
| C[C@H](NC(=O)c1cc(Cl)cc([S+]([O-])C(F)F)c1)c1ncnn1-c1ccc(C#N)cn1 (stereo partly drawn) [II-18, 3-chloro-N-{(1S)-1-[1-(5-cyanopyridin-2-yl)-1H-1,2,4-triazol-5-yl]ethyl}-5-[(difluoro-methyl)sulfinyl]benzamide] | 100% | 100% |  |  |  |  |  | 100% | 80 to 100% | 80 to 100% |  |  | 100% |  |
| C[C@H](NC(=O)c1cc(OC(F)(F)F)cc(C2CC2)c1)c1ncnn1-c1ccccn1 [II-22] | 100% | 100% |  |  |  |  |  |  |  | 80 to 100% |  | 90% | 100% | 90% |
| C[C@H](NC(=O)c1cc(OC(F)(F)F)cc(C2CC2)c1)c1ncnn1-c1ccc(Cl)cn1 [II-23] | 100% | 100% | 100% | 100% | 100% |  | 80 to 100% | 100% | 80 to 100% | 80 to 100% |  | 100% | 100% |  |
| C[C@H](NC(=O)c1cc(C2CC2)cc(C(F)(F)F)c1)c1ncnn1-c1ccc(C#N)cn1 [II-26] | 100% | 100% | 100% | 100% | 90% |  |  | 100% |  |  |  | 100% | 100% |  |
| C[C@H](NC(=O)c1cc(C2CC2)cc(C(F)(F)F)c1)c1ncnn1-c1ccc(Cl)cn1 [II-27] | 100% | 100% | 100% | 100% |  | 80 to 100% |  | 100% | 80 to 100% | 80 to 100% |  |  | 100% |  |
| C[C@H](NC(=O)c1cc(C#N)cc(S(C)(=O)=O)c1)c1ncnn1-c1ccc(Cl)cn1 [II-29] | 100% | 100% | 80% | 100% | 90% |  |  | 100% | 80 to 100% |  |  | 100% | 100% |  |
| C[C@H](NC(=O)c1cc(C(F)(F)F)cc(S(=O)(=O)C2CC2)c1)c1ncnn1-c1ccc(C#N)cn1 [II-32] | 100% | 100% | 100% | 100% |  |  |  | 100% | 80 to 100% | 80 to 100% |  | 90% | 100% |  |
| Cc1nc([C@H](C)NC(=O)c2cc(Cl)cc(S(=O)(=O)C(F)F)c2)n(-c2ccc(C#N)cn2)n1 [II-35] | 100% | 100% |  | 80% | 100% |  |  | 100% |  |  |  | 100% | 100% |  |
| Cc1nc([C@H](C)NC(=O)c2cc(Cl)cc(S(=O)(=O)C(F)F)c2)n(-c2ccc(Cl)cn2)n1 [II-36] | 100% | 100% |  | 80% |  |  |  | 100% |  |  |  | 90% | 100% |  |
| Cc1nc([C@H](C)NC(=O)c2cc(Cl)cc(C3(C#N)CC3)c2)n(-c2ccc(C#N)cn2)n1 [II-38] | 100% | 100% | 100% | 100% | 90% |  |  |  |  |  |  |  |  |  |
| C[C@H](NC(=O)c1cc(Cl)cc(S(=O)(=O)C(F)(F)F)c1)c1ncnn1-c1ncc(OC(F)F)cn1 [II-43] | 100% | 100% |  |  |  |  |  | 100% | 80 to 100% |  |  |  |  |  |
| Cc1nc([C@H](C)NC(=O)c2cc(C(F)(F)F)cc(C3(C#N)CC3)c2)n(-c2ccc(Cl)cn2)n1 [II-50] | 100% | 100% | 100% | 100% | 100% |  |  | 100% |  |  |  |  |  |  |
| Cc1nc([C@H](C)NC(=O)c2cc(C(F)(F)F)cc(S(C)(=O)=O)c2)n(-c2ccc(C#N)cn2)n1 [II-52] | 100% | 100% | 100% | 100% | 90% |  |  | 100% |  |  | 100% |  |  |  |
| C[C@H](NC(=O)c1cc(C#N)cc(C2CC2)c1)c1ncnn1-c1ncccn1 [II-54] | 90% | 80% | 100% |  | 100% |  | 80 to 100% | 100% |  |  | 100% |  |  |  |
